The values below come from patent US12391670B2, “Functionalized aminotriazines” (LEADXPRO AG, priority 2018, dated 2025).

SMILES strings stand for the structures. Like-named read-outs stand apart in the source and are kept apart here.

A word on the Kd: it is the equilibrium constant for the complex coming apart. High values mean a looser complex, low ones a tighter complex. As a reminder, the inhibition is the drop in the measured response relative to a control, in per cent.

For test [1], the target named is T1, human A2B receptor (Homo sapiens (Human), UniProt P29275). The test is described as follows: Radioligand binding competition assay, [3H]-DPCPX, membranes from HEK293 cells transfected with human A2B receptor. The protocol: (§1) For all four adenosine receptors (A1, A2A, A2B and A3) filtration binding assay was performed. Radioligand binding competition assay was done in duplicates in the wells of a 96-well plate (Master Block, Greiner, 786201) containing binding buffer, receptor membrane extracts, a fixed concentration of tracer and test compound at increasing concentrations. In order to eliminate effect of buffer components, binding buffer was the same for all four receptors and contained: 50 mM Tris-HCl pH 7.4, 5 mM MgCl2, 1 mM EDTA, 150 mM NaCl, 0.1% Na-azide, and 5 U/ml adenosine-deaminase. Nonspecific binding was determined by co-incubation with 200-fold excess of cold competitor. In all radioligand binding experiments, the samples were incubated in a final volume of 0.1 ml for 60 minutes at 25° C. and then filtered over Unifilter plates (Perkin Elmer) pre-treated for 2 hours to limit tracer non-specific binding. Filters were washed five times with 0.5 ml of ice-cold washing buffer (50 mM Tris-HCl pH 7.4, 5 mM MgCl2, 1 mM EDTA) and 50 μl of Microscint 20 (Perkin Elmer) were added to each filter. The plates are incubated 15 min at room temperature on an orbital shaker and then counted with a TopCount™ for 1 min/well.
T1 sequence (P29275 whole entry): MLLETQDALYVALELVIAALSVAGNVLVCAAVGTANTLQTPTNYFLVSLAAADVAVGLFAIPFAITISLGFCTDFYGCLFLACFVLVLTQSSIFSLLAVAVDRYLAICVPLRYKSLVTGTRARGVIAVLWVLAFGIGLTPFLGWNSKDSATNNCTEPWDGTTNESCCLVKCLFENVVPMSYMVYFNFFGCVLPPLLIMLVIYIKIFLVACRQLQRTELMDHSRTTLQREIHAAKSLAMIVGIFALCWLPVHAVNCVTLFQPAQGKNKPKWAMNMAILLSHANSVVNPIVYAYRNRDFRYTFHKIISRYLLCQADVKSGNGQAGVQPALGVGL
For A2B, the assay was carried with [^3H]-DPCPX and membranes prepared from HEK293 cells transfected with human A2B receptor (Euroscreen FAST-003B).

The target of another test is human A2A receptor (Homo sapiens (Human), UniProt P29274). Nature of the test: Radioligand binding competition assay, [3H]-NECA, membranes from HEK293 cells transfected with human A2A receptor. The following applies: for Human A2A Receptor pKi / IC50: radioligand binding. The protocol: as §1
human A2A receptor, sequence (P29274 whole entry): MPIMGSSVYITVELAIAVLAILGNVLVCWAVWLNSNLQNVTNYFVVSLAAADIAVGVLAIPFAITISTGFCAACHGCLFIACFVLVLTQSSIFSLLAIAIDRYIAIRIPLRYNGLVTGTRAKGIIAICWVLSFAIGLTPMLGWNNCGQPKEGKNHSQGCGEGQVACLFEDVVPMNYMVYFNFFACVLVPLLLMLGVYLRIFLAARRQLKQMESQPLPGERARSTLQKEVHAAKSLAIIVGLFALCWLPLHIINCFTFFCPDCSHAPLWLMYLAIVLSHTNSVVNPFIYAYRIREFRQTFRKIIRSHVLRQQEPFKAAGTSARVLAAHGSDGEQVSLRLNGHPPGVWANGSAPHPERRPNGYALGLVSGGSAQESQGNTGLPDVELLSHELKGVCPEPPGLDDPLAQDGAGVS
For A2A receptor the assay was performed with [^3H]-NECA and membranes from HEK293 cells transfected with human A2A receptor (Euroscreen FAST-002B).

Another test concerns the target human A1 receptor (Homo sapiens (Human), UniProt P30542). Nature of the test: Radioligand binding competition assay, [3H]-DPCPX, membranes from CHO-K1 cells transfected with human A1 receptor. As to the method: as §1
For A1 receptor the assay was performed with [^3H]-DPCPX and membranes from CHO-K1 cells transfected with human A1 receptor (Euroscreen FAST-00B).

Test [2] addresses A2B receptors endogenously expressed in HEK293 cells (Homo sapiens (Human), UniProt P29275). The test is described as follows: cAMP assay (a), HEK293 cells with A2B receptors endogenously expressed. It is filed as cell-based. Conditions: stimulated with 5 μM NECA. The protocol:
(§2) Two assays have been employed, one using HEK293 with A2B receptors endogenously expressed (named cAMP assay (a) in the following) and a second one using HEK293 cells impressing recombinant human A2B receptors (named cAMP assay (b) in the following)
Real-time cAMP-assays in live cells were performed in HEK293 cells stably expressing the EPAC-sensor (I. Vedel, et al., 2015, J. Biomol. Screen. 20, 849-857).
In order to test for cAMP inhibition by preferred compounds of formula I and antagonists, respectively, from this invention, endogenous A2A and A2B expression in above cell lines was exploited. To run the assay, cells were incubated in 80 μl assay buffer for 15 minutes at room temperature. The assay buffer was composed of Hanks Balanced Salt Solution (Gibco) with 20 mM HEPES, pH 7.4 and […] adenosine-deaminase. All cAMP assays were run at room temperature using a PHERAstar FSX plate reader. The FRET donor (mCerulean) was excited at 430 nm. Fluorescence emission was measured at 480 nm and 530 nm for 65 minutes (cycle time 1.45 min). Prior to stimulation fluorescence was measured for 10 min (baseline). Subsequently cells were stimulated with 5 μM NECA (5′-(N-Ethylcarboxamido)adenosine; Tocris, Cat.-No:35920-39-9). Sharply 10.15 min after stimulation the compounds were added at increasing concentrations (between 0 and 200 μM) and fluorescence was recorded for 40 min. Each compound concentration was measured in duplicates.

In test [3] the target is human thermostabilised A2B receptor. The test is described as follows: Wave Guided Interferometry (WGI). The class given is binding. The following applies: 1:1 interaction model. As to the method: Biophysical Assays: A2B and A2A receptors used for biophysical measurements were produced using baculovirus mediated expression in insect cells. Expression constructs for both receptors contained point mutations that increased receptor thermal stability. Thermostabilised A2B and A2A receptors were solubilized using mild detergents (DDM and DM, respectively) and purified by standard purification methods. A2B receptor was purified in the buffer containing: 40 mM Tris-HCl pH 7.4, 200 mM NaCl, 0.05% DDM, and 0.005% CHS. A2A receptor was purified in the buffer containing: 40 mM Tris-HCl pH 7.4, 200 mM NaCl, 0.15% DM, and 0.002% CHS.
WGI experiments with A2B receptor were performed using the Wave delta instrument (Creoptix AG), a label free surface biosensor. Purified A2B protein was immobilized on 4PCP-N chips (Creoptix, quasi planar NTA functionalized polycarboxylate surface) at typical levels between […]. Running buffer was 25 mM Tris-HCl pH 7.5, 350 mM NaCl, 0.1% DDM, and 2% DMSO. The procedure started with 40 start-up cycles in order to equilibrate and stabilize the surface. Once start-up cycles were performed, different concentrations of compounds (diluted in running buffer, and adjusted depending on the kinetic characteristics) were injected in a multi cycle kinetic mode with typical association time of 120 s and dissociation time of 240 s. A DMSO calibration (typically 5 concentrations between 1 and 3% DMSO) was performed for every experiment in order to calibrate DMSO levels as well as to estimate the missing volume taken by the protein on the chip. Data were evaluated with Creoptix Wave software (Creoptix AG). All final signals are double referenced with injections of same compound concentrations on a reference channel and with buffer injections on the active channel (where protein is immobilized) and fitted with a 1:1 interaction model in order to obtain KD values.

The target in the next test is human A3 receptor (Homo sapiens (Human), UniProt P0DMS8). The test is described as follows: Radioligand binding competition assay, [125I]-MECA, membranes from CHO-K1 cells transfected with human A3 receptor. The protocol: as §1
human A3 receptor, sequence (P0DMS8 whole entry): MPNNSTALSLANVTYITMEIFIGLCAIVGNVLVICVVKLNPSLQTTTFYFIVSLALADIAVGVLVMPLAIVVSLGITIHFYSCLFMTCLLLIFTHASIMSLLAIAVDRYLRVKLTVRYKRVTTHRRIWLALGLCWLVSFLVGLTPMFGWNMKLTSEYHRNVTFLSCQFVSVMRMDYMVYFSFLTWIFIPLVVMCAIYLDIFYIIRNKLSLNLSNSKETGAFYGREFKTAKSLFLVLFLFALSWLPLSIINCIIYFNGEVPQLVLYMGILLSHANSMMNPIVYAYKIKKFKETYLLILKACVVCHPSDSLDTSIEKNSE
For A3, the assay was carried out with [^125I]-MECA and membranes from CHO-K1 cells transfected with human A3 receptor (Euroscreen FAST-004B).

In test [4] the target is T1, human A2B receptor. Nature of the test: cAMP assay (b), HEK293 cells expressing recombinant human A2B receptor. It is filed as cell-based. Conditions: reference agonist at EC80, read-out: cAMP pIC50 (converted). As to the method: as §2
Dose response curves were performed in parallel with the reference compounds. 12 μl of cells were mixed with 6 μl of the test compound at increasing concentrations and then incubated 10 min. Thereafter 6 μl of the reference agonist was added at a final concentration corresponding to the historical EC80. The plates were then incubated for 30 min at room temperature. After addition of the lysis buffer and 1 hour incubation, cAMP concentrations were estimated, according to the manufacturer specification, with the HTRF kit.
For orientation: Cyclic AMP is a second messenger, typically raised through Gs and lowered through Gi signalling.

Setting [5] is: read-out: cAMP pIC50 (converted).

human A1 receptor, sequence (P30542 whole entry): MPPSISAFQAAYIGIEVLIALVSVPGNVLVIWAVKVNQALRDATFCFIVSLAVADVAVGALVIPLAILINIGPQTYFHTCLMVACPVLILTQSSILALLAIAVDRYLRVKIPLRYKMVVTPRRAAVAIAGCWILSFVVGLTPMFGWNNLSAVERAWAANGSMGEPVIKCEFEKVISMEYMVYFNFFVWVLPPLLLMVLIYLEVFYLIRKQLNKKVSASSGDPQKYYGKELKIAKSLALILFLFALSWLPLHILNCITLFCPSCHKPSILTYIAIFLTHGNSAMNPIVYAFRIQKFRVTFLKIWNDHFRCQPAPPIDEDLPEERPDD
A2B receptors endogenously expressed in HEK293 cells, sequence (P29275 whole entry): as the sequence (P29275 whole entry) above

Consider `Fc1cnccc1-c1nnc(Nc2cccnc2)nc1-c1cccnc1` [Example 1, 6-(3-fluoropyridin-4-yl)-N,5-di(pyridin-3-yl)-1,2,4-triazin-3-amine], for which, at human A2B receptor [1], the “Human A2B Receptor pKi” value turned out to be 6.55. For the same molecule, the IC50 at human A2B receptor [1] is 320 nM; at human A2A receptor, 18500 nM; on human A1 receptor, 19000 nM; in test [2] it was 400 nM; in test [2] (setting [5]), 398 nM. In addition, the “Human A2A Receptor pKi” value at human A2A receptor came out at 4.73. Besides, the “Human A1 Receptor pKi” value at human A1 receptor amounted to 5.02. The Kd in test [3] stood at 500 nM.
Regarding `Fc1cccc(Nc2nnc(-c3ccncc3F)c(-c3cccnc3)n2)c1` [Example 2, N-(3-fluorophenyl)-6-(3-fluoropyridin-4-yl)-5-(pyridin-3-yl)-1,2,4-triazin-3-amine], the “Human A2B Receptor pKi” value on human A2B receptor [1] stood at 6.99. Moreover, the IC50 on human A2B receptor [1] was 120 nM; on human A2A receptor it was 12700 nM; at human A1 receptor, 7440 nM; in test [2], 630 nM; in test [2] (setting [5]), 631 nM. The “Human A2A Receptor pKi” value on human A2A receptor amounted to 4.9. In addition, the “Human A1 Receptor pKi” value on human A1 receptor is 5.43. This molecule showed a Kd in test [3] of 1000 nM.
Regarding `Fc1cnccc1-c1nnc(Nc2nc(Cl)cs2)nc1-c1cccnc1` [Example 4, 4-chloro-N-(6-(3-fluoropyridin-4-yl)-5-(pyridin-3-yl)-1,2,4-triazin-3-yl)thiazol-2-amine], on human A2B receptor [1], the “Human A2B Receptor pKi” value is 6.5 and the IC50 turned out to be 360 nM. At human A2A receptor, the “Human A2A Receptor pKi” value came out at 5.48 and the IC50 came out at 3280 nM. The dissociation constant (Kd) in test [3] is 1000 nM.
Take `Fc1ccccc1-c1nc(Nc2cccnc2)nnc1-c1ccnc(C(F)(F)F)c1` [Example 8, 5-(2-fluorophenyl)-N-(pyridin-3-yl)-6-(2-(trifluoromethyl)pyridin-4-yl)-1,2,4-triazin-3-amine]: the Kd in test [3] was 130 nM.
In test [3], `Cc1nsc(Nc2nnc(-c3ccnc(C(F)(F)F)c3)c(-c3ccccc3F)n2)n1` [Example 11, N-(5-(2-fluorophenyl)-6-(2-(trifluoromethyl)pyridin-4-yl)-1,2,4-triazin-3-yl)-3-methyl-1,2,4-thiadiazol-5-amine] showed a Kd of 470 nM.
On to `Cc1cc(Nc2nnc(-c3ccncc3F)c(-c3ccccc3F)n2)[nH]n1` [Example 14, 5-(2-fluorophenyl)-6-(3-fluoropyridin-4-yl)-N-(3-methyl-1H-pyrazol-5-yl)-1,2,4-triazin-3-amine], for which, on human A2B receptor [1], the “Human A2B Receptor pKi” value is 6.93 and the IC50 turned out to be 460 nM. In addition, on human A3 receptor, the “Human A3 Receptor pKi” value was found to be 4.68 and the IC50 turned out to be 27100 nM. On human A2A receptor, the inhibition at 50 µM stood at 54% and the “Human A2A Receptor pKi” value is recorded as less than 4.70. In addition, at human A1 receptor, the “Human A1 Receptor pKi” value is 5.96 and the IC50 turned out to be 2200 nM. The molecule also gave a dissociation constant (Kd) in test [3] of 240 nM.
Take `Cc1n[nH]c(Nc2nnc(-c3ccncc3F)c(-c3ccccc3F)n2)n1` [Example 15, 5-(2-fluorophenyl)-6-(3-fluoropyridin-4-yl)-N-(3-methyl-1H-1,2,4-triazol-5-yl)-1,2,4-triazin-3-amine]: on human A2B receptor [1], the “Human A2B Receptor pKi” value is reported as 6.82. Further, the IC50 on human A2B receptor [1] was 170 nM; at human A3 receptor, 43500 nM; at human A2A receptor, 39400 nM; on human A1 receptor, 1180 nM; at human A2B receptor [4], 501 nM. Further, at human A3 receptor, the “Human A3 Receptor pKi” value is 4.48. In addition, the “Human A2A Receptor pKi” value at human A2A receptor came out at 4.4. In addition, the “Human A1 Receptor pKi” value on human A1 receptor is recorded as 6.23. Further, the Kd in test [3] turned out to be 120 nM.
On to `CNC(=O)Nc1nnc(-c2ccncc2F)c(-c2ccccc2F)n1` [Example 16, 1-(5-(2-fluorophenyl)-6-(3-fluoropyridin-4-yl)-1,2,4-triazin-3-yl)-3-methylurea], for which, on human A2B receptor [1], the “Human A2B Receptor pKi” value amounted to 6.84 and the IC50 was found to be 160 nM. In addition, at human A3 receptor, the “Human A3 Receptor pKi” value is 5.14 and the IC50 was 9520 nM. Moreover, on human A2A receptor, the inhibition at 50 µM came out at 48% and the “Human A2A Receptor pKi” value is reported as less than 4.70. On human A1 receptor, the “Human A1 Receptor pKi” value came to 5.73 and the IC50 worked out at 3790 nM. The same molecule yielded a Kd in test [3] of 100 nM.
In the case of `Fc1cnccc1-c1nnc(Nc2nc(C3CC3)n[nH]2)nc1-c1ccccc1F` [Example 31, N-(3-cyclopropyl-1H-1,2,4-triazol-5-yl)-5-(2-fluorophenyl)-6-(3-fluoro-4-pyridyl)-1,2,4-triazin-3-amine], at human A2B receptor [1], the “Human A2B Receptor pKi” value was found to be 7.27. The “Human A1 Receptor pKi” value on human A1 receptor is listed as 5.00. Also, the IC50 on human A2B receptor [4] is 275 nM.
Consider `CC(C)(O)c1ccc(Nc2nnc(-c3ccncc3F)c(-c3ccccc3F)n2)cn1` [Example 38, 2-(5-{[5-(2-fluorophenyl)-6-(3-fluoropyridin-4-yl)-1,2,4-triazin-3-yl]amino}pyridin-2-yl)propan-2-ol], for which, on human A2B receptor [1], the “Human A2B Receptor pKi” value was 7.65. For the same molecule, on human A3 receptor, the “Human A3 Receptor pKi” value is listed as 6.42. On human A2A receptor, the “Human A2A Receptor pKi” value stood at 5.84. In addition, the “Human A1 Receptor pKi” value on human A1 receptor was determined as 6.26. Moreover, the IC50 at human A2B receptor [4] was 50.1 nM.
On to `OCc1ncc(Nc2nnc(-c3ccncc3F)c(-c3ccccc3F)n2)cn1` [Example 39, (5-{[5-(2-fluorophenyl)-6-(3-fluoropyridin-4-yl)-1,2,4-triazin-3-yl]amino}pyrimidin-2-yl)methanol], for which, on human A2B receptor [1], the “Human A2B Receptor pKi” value was 7.76. Besides, on human A3 receptor, the “Human A3 Receptor pKi” value was 6.52. For the same molecule, the “Human A2A Receptor pKi” value at human A2A receptor is 5.66. In addition, the “Human A1 Receptor pKi” value on human A1 receptor is on record as 6.19. Moreover, the IC50 on human A2B receptor [4] is 41.7 nM.
